According to ChEMBL document CHEMBL3044655, “QSAR studies of 7-methyljuglone derivatives as antitubercular agents” (Med Chem Res, 2012):

System: Mycobacterium tuberculosis
Test: Antitubercular activity against Mycobacterium tuberculosis H37Rv by BACTEC method
Format: functional, organism-based

## CC(=O)Oc1cc(OC(C)=O)c2c(OC(C)=O)c(C)c(C)c(F)c2c1OC(C)=O
read-out: IC50
  IC50: 3.3 nM
read-out: pIC50 (converted)
  IC50: 3.34 nM

## CCOc1cc(C)cc2c1C(=O)C=CC2=O
read-out: IC50
  IC50: 6.3 nM
read-out: pIC50 (converted)
  IC50: 6.3 nM

## COc1c(C)cc(Cl)c2c1C(=O)C=CC2=O
read-out: IC50
  IC50: 8 nM
read-out: pIC50 (converted)
  IC50: 8 nM

## COc1cc(C)cc2c1C(=O)C=CC2=O
read-out: IC50
  IC50: 5.8 nM
read-out: pIC50 (converted)
  IC50: 5.8 nM

## COc1cc(C)c(Cl)c2c1C(=O)C=CC2=O
read-out: IC50
  IC50: 7.7 nM
read-out: pIC50 (converted)
  IC50: 7.7 nM

## CC(=O)Oc1cc(C)cc2c1C(=O)C=CC2=O
read-out: IC50
  IC50: 6 nM
read-out: pIC50 (converted)
  IC50: 6 nM

## Cc1cc(Cl)c2c(c1O)C(=O)C=CC2=O [8-CHLORO-5-HYDROXY-6-METHYLNAPHTHALENE-1,4-DIONE]
read-out: IC50
  IC50: 4.6 nM
read-out: pIC50 (converted)
  IC50: 4.6 nM

## Cc1cc(O)c2c(c1Cl)C(=O)C=CC2=O [5-CHLORO-8-HYDROXY-6-METHYLNAPHTHALENE-1,4-DIONE]
read-out: IC50
  IC50: 2.5 nM
read-out: pIC50 (converted)
  IC50: 2.5 nM

## CC(=O)Oc1cc(OC(C)=O)c2c(OC(C)=O)ccc(Cl)c2c1OC(C)=O
read-out: IC50
  IC50: 12.4 nM
read-out: pIC50 (converted)
  IC50: 12.2 nM

## Cc1cc(O)c2c(c1Br)C(=O)C=CC2=O [5-BROMO-8-HYDROXY-6-METHYLNAPHTHALENE-1,4-DIONE]
read-out: IC50
  IC50: 3.6 nM
read-out: pIC50 (converted)
  IC50: 3.6 nM

## CC(=O)Oc1cc(OC(C)=O)c2c(OC(C)=O)c(C)cc(Cl)c2c1OC(C)=O
read-out: IC50
  IC50: 149 nM
read-out: pIC50 (converted)
  IC50: 149 nM

## Cc1ccc2c(c1O)C(=O)C=CC2=O
read-out: IC50
  IC50: 3.1 nM
read-out: pIC50 (converted)
  IC50: 3.1 nM

## CC(=O)Oc1cc(OC(C)=O)c2c(OC(C)=O)cc(C)c(Cl)c2c1OC(C)=O
read-out: IC50
  IC50: 27.8 nM
read-out: pIC50 (converted)
  IC50: 27.8 nM

## CC(=O)Oc1c(C)cc(Cl)c2c1C(=O)C=CC2=O
read-out: IC50
  IC50: 21.1 nM
read-out: pIC50 (converted)
  IC50: 21.1 nM

## Cc1cc(O)c2c(c1F)C(=O)C=CC2=O [5-FLUORO-8-HYDROXY-6-METHYLNAPHTHALENE-1,4-DIONE]
read-out: IC50
  IC50: 7.6 nM
read-out: pIC50 (converted)
  IC50: 7.6 nM

## CC(=O)Oc1cc(C)c(Cl)c2c1C(=O)C=CC2=O
read-out: IC50
  IC50: 6.3 nM
read-out: pIC50 (converted)
  IC50: 6.3 nM

## CCOc1c(C)cc(Cl)c2c1C(=O)C=CC2=O
read-out: IC50
  IC50: 12.5 nM
read-out: pIC50 (converted)
  IC50: 12.5 nM

## Cc1cc(O)c2c(c1)C(=O)C=CC2=O [RAMENTACEONE]
read-out: IC50
  IC50: 15.1 nM
read-out: pIC50 (converted)
  IC50: 15.1 nM

## CC(=O)Oc1cc(OC(C)=O)c2c(OC(C)=O)cc(C)cc2c1OC(C)=O
read-out: IC50
  IC50: 17.2 nM
read-out: pIC50 (converted)
  IC50: 17.2 nM

## CCOc1cc(C)c(Cl)c2c1C(=O)C=CC2=O
read-out: IC50
  IC50: 36.1 nM
read-out: pIC50 (converted)
  IC50: 36.1 nM

## CC(=O)Oc1cc(OC(C)=O)c2c(OC(C)=O)c(C)c(C)c(Cl)c2c1OC(C)=O
read-out: IC50
  IC50: 7.7 nM
read-out: pIC50 (converted)
  IC50: 7.7 nM

## O=C1C=CC(=O)c2c(O)cccc21 [JUGLONE]
read-out: IC50
  IC50: 1.2 nM
read-out: pIC50 (converted)
  IC50: 1.2 nM

## COc1c(OC)c(OC(C)=O)c2c(OC(C)=O)cc(OC(C)=O)c(OC(C)=O)c2c1F
read-out: IC50
  IC50: 3.9 nM
read-out: pIC50 (converted)
  IC50: 3.86 nM

## Cc1cc(O)c2c(c1)C(=O)C(O)=CC2=O
read-out: IC50
  IC50: 3.1 nM
read-out: pIC50 (converted)
  IC50: 3.1 nM

## CC(=O)Oc1cc(OC(C)=O)c2c(OC(C)=O)ccc(F)c2c1OC(C)=O
read-out: IC50
  IC50: 7.9 nM
read-out: pIC50 (converted)
  IC50: 7.97 nM
